{
  "source": "patent US7803769B2",
  "about": "(priority 2006, dated 2010)",
  "key": {"[1]": {"system": "CD40L on CD4+ T cells in human whole blood", "format": "cell-based"}, "[2]": {"system": "thapsigargin-induced IFN-g production in human whole blood", "format": "cell-based"}, "[3]": {"conditions": "rat, in vivo, iv"}, "[4]": {"system": "IL-2 production from αCD3 and αCD28 antibody stimulated human PBMCs", "format": "cell-based"}, "[5]": {"system": "adoptive transfer EAE model of multiple sclerosis", "conditions": "rat, in vivo, sc"}, "[6]": {"system": "IL-2 production from PMA and αCD3 antibody stimulated human PBMCs", "format": "cell-based"}, "[7]": {"system": "IFNγ production from αCD3 and αCD28 antibody stimulated human PBMCs", "format": "cell-based"}, "[8]": {"system": "IFNγ production from PMA and αCD3 antibody stimulated human PBMCs", "format": "cell-based"}, "[9]": {"system": "IL-2R on CD4+ T cells in human whole blood", "format": "cell-based"}},
  "data": [
    {"compound": "CC[C@H](C)[C@@H]1NC(=O)[C@@H](NC(=O)[C@H](CO)NC(=O)[C@@H](N)CCCNC(=N)N)CSSC[C@@H](C(=O)O)NC(=O)[C@H]([C@@H](C)O)NC(=O)CNC(=O)[C@@H]2CSSC[C@@H]3NC(=O)[C@H](CCC(N)=O)NC(=O)[C@H](Cc4ccccc4)NC(=O)[C@H](C)NC(=O)[C@H]([C@@H](C)O)NC(=O)[C@H](CSSC[C@H](NC(=O)[C@H](Cc4ccccc4)NC(=O)[C@H](CO)NC(=O)[C@H](CC(C)C)NC(=O)[C@H](CCCNC(=N)N)NC(=O)[C@H](Cc4ccc(O)cc4)NC(=O)[C@H](CCCCN)NC(=O)[C@H](CCSC)NC(=O)[C@H](CO)NC(=O)[C@H](Cc4cnc[nH]4)NC(=O)[C@H](CCCCN)NC3=O)C(=O)N[C@@H](CCCNC(=N)N)C(=O)N[C@@H](CCCCN)C(=O)N[C@@H]([C@@H](C)O)C(=O)N2)NC(=O)[C@H](CCCNC(=N)N)NC(=O)[C@H](CO)NC(=O)[C@H](CCCCN)NC(=O)[C@@H]2CCCN2C(=O)[C@H]([C@@H](C)CC)NC(=O)[C@H]([C@@H](C)O)NC(=O)[C@H](CC(=O)O)NC1=O", "note": "[ShK, reference compound]", "values": [
      {"measurement": "thapsigargin-induced upregulation of CD40L on T cells (in words)", "setting": "[1]", "result": "suppressed"},
      {"measurement": "thapsigargin-induced IFN-g production in human whole blood (in words)", "setting": "[2]", "result": "suppressed"},
      {"measurement": "time of significant suppression of Kv1.3 current (<70 POC) by 5% serum Test solutions", "setting": "[3]", "result": "≤ 1", "unit": "h"},
      {"measurement": "inhibition of IL-2 production (in words)", "setting": "[4]", "result": "only partial inhibition"},
      {"measurement": "average body weight lost", "setting": "[5]", "result": 30, "unit": "g"},
      {"measurement": "disease severity and survival (in words)", "setting": "[5]", "result": "developed severe disease and died"},
      {"measurement": "onset of disease", "setting": "[5]", "result": 4, "unit": "days"},
      {"measurement": "inhibition of IL-2 production (in words)", "setting": "[6]", "result": "only a partial inhibition"},
      {"measurement": "inhibition of IFNg production (in words)", "setting": "[7]", "result": "only partial inhibition"},
      {"measurement": "inhibition of IFNγ production (in words)", "setting": "[8]", "result": "only a partial inhibition"},
      {"measurement": "thapsigargin-induced upregulation of IL-2R on T cells (in words)", "setting": "[9]", "result": "suppressed"}
    ]}
  ]
}
